Columns and labels:
[1] = tested on: rats with gout induced by intra-articular uric acid; experiment: Pain-induced functional impairment model in the rat (PIFIR model), antinociceptive effects; type: in vivo, male Wistar rats
Procedure: The following compounds were employed: uric acid, celecoxib and diacerein, propylene glycol, carboxymethyl cellulose and mineral oil. The celecoxib and diacerein were dissolved in propylene glycol (5%) and carboxymethyl cellulose.
It started with determining the antinociceptive effects of the individual compounds to then go on to analyze the effects of the combination, employing the “Pain-induced functional impairment model in the rat” (“PIFIR model”). The animals were anesthetized in a glass desiccator, saturated with ether vapor. The gout was induced by applying an intra-articular injection (i.a.) of 0.05 ml of uric acid suspended in mineral oil at 30% in the right hind member, precisely in the femur-tibia-patella joint.
A 1 mL glass syringe with a 4-mm-long No. 22 needle was used for the intra-articular injection. Immediately afterwards, an electrode is attached to each hind paw (of the rats) in the middle of the plantar calluses. The rats were left to recover from the anesthesia and placed in a 30-cm-diameter rotary stainless-steel cylinder. The cylinder was turned at 4 r.p.m., forcing the rats to walk for 2 min every half hour, for a total of 6.5 hours, (2.5 h to generate the arthritis and 4 h for the assessment of antinociceptive effects. The variable measured was the contact time of each one of the rats' hind legs in the cylinder.
First it was decided to determine the range of doses that could form the celecoxib dose/response curve. […] The 50 mg/kg dose of diacerein has been determined to be a proper dose in the preclinical stage to be employed in combination and be able to determine if changes are produced in the antinociceptive effects.
Thus, the possible antinociceptive effects of both the individual and the combined forms of the compounds were determined and analyzed using animals with gout in the experimental model of Pain-induced functional impairment model in the rat. […]
After the uric acid was administered to the joint to produce the gout type impairment and alteration, there was a wait of 2.5 hours for the total impairment to be produced (the symptoms of gout were already complete at 2.5 hours after the uric acid was administered). This time (2.5 hours after the administration of the uric acid) was considered to be “0” time, for administering the treatment, at this moment, with the individual drugs and the drugs in combined form, followed by the temporary courses of each treatment being determined for the following 4 hours. […]
From the afore-described that corresponds to the experimental model of preclinical analysis of this combination of celecoxib with diacerein whose protection is being sought, the following results were obtained: The data are expressed as a percentage Functionality Index (FI %). […]

rats = experiment: Assessment of toxic effects (lethality), oral
Text: In order to determine possible antinociceptive effects and toxic effects, male Wistar rats [Crl:(WI)BR] were employed with a weight of between 180 and 200 g. All the experimental procedures followed the recommendations of the Committee for Research and Ethical Issues of the International Association for the Study of Pain and the Guidelines on Ethical Standards for Investigations of Experiment Pain in Animals. The number of animals for experimentation was kept to a minimum (6 animals per experimental point for antinociceptive effects and 10 animals per experimental point for adverse effects: lethality). The animals were kept in a room with alternating dark/light cycles. Twelve hours before the antinociception experiments, food was withdrawn from the rats, only leaving them free access to water. All the experiments were carried out during the light phase.
In the determinations presented for the individual drugs or drugs in combination, an attempt was made to administer the treatment on a single occasion but, when this was not possible owing to the high concentration and limits of solubility, several administrations were made with 3-hour time intervals. The established doses were always increased in logarithmic units administered orally both for celecoxib and for diacerein.
In the determinations presented below, the treatment was administered on a single occasion and, in the case of celecoxib, high doses in several administrations until the required dose is completed. The established doses were always increased in logarithmic units and administered orally.

[2] = cited from earlier work

Row | Compound | maximum antinociceptive effectiveness (AUC of temporary courses, DRC) ([1]; celecoxib by itself, oral, acute administration, doses 3.2 to 1000 mg/kg, 4 h assessment, mean ± standard error, FIG. 2) [au] | temporary courses of antinociceptive effect (FI %), dose dependence ([1]; oral, acute administration, 4 h, celecoxib 3.2 to 1000 mg/kg alone or with diacerein 50 mg/kg) | antinociceptive effects of chronic treatment compared with acute administration ([1]; oral, chronic (7 days) vs acute form) | dose that starts to generate effects of lethality at 24 hours (rats; oral, rats, 24 h post-treatment, FIG. 7) [mg/kg] | dose that starts to generate effects of lethality at 48 hours (rats; oral, rats, 48 h post-treatment, FIG. 8) [mg/kg] | dose that starts to generate effects of lethality at 72 hours (rats; oral, rats, 72 h post-treatment, FIG. 9) [mg/kg] | binding to plasma proteins ([2]; in vivo) [%] | time to maximum plasma concentration ([2]; oral) | antinociceptive effect (recovery of FI %) ([1]; 50 mg/kg oral doses, 4 h of assessment) | dose that starts to generate effects of lethality at 48 hours (rats; male, Wistar [Crl:(WI)BR], rat, in vivo, po, 48 h) [mg/kg] | dose that starts to generate effects of lethality at 72 hours (rats; male, Wistar [Crl:(WI)BR], rat, in vivo, po, 72 h) [mg/kg] | position of the DRC for the effects of lethality (rats; oral, rats, relative to the DRC of celecoxib by itself)
1 | Cc1ccc(-c2cc(C(F)(F)F)nn2-c2ccc(S(N)(=O)=O)cc2)cc1 [celecoxib, 4-[5-(4-methylphenyl)-3-(trifluoromethyl)-1H-pyrazol-1-yl]benzenesulfonamide] | 191.9±27.2 | dose-dependent antinociceptive effects | better antinociceptive effects | 17800 | 10000 | 5600 | 97 | around 3 hours |  |  |  | 
2 | CC(=O)Oc1cccc2c1C(=O)c1c(OC(C)=O)cc(C(=O)O)cc1C2=O [diacerein, 4,5-Bis(acetyloxy)-9,10-dihydro-9,10-dioxo-2-anthracenecarboxylic acid] |  |  |  |  |  |  |  |  | did not show any antinociceptive effect whatsoever | 1800 | 1000 | more to the left of that of celecoxib
